Measurements from patent publication US9861642B2, “Methods for diagnosing and treating asthma” (The Children's Research Institute, priority 2010, dated 2018).

Assays:
Format in all cases: cell-based
[1] = test system: asthmatic primary differentiated human airway (bronchial) epithelia; assay: BrdU flow cytometry of mitotically active cells after scrape-wounding, asthmatic epithelia; details: wounded asthmatic epithelia, 20 nM 2 h pulses every 24 h, harvest +48 h, mean±SEM
Source text: Normal (n=3) and asthmatic (n=6) primary differentiated human airway (i.e. bronchial) epithelia grown in 12-well plates on collagen-coated Transwell membrane inserts at an air-liquid interface were obtained commercially (#AIR-606 and #AIR-606-Asthma; MatTek Corporation, Ashland, Mass.). Donors underwent bronchoscopic brushing to acquire epithelial cells. Descriptive donor information provided by MatTek Corporation for the individuals from whom cells were obtained is shown in Table 1.
(§1) On arrival, the in vitro epithelia were washed with phosphate buffered saline (PBS) and the basal medium was replaced with proprietary defined medium supplied by the manufacturer. Cells were equilibrated at 37° C. and 5% CO2 for 16 h followed by medium replacement with identical proprietary medium lacking glucocorticoids and epidermal growth factor (EGF). This condition was maintained for an additional 22 h. […]
(§2) An in vitro epithelial injury model that allows for the study of epithelial repair processes in the lung was adapted for use in this study. […] In some experiments, wounds were imaged daily (i.e. 0, +24, +48 h) using a 16× phase contrast objective lens and wound area was measured in triplicate by a single operator blinded to the culture conditions using ImageJ Software (Rasband. ImageJ. Bethesda, Md., USA: U. S. National Institutes of Health; 1997-2009). […]

[2] = test system: asthmatic primary differentiated human airway epithelia; assay: Flow cytometric cell cycle analysis (7-AAD) of BrdU+ cells from wounded asthmatic epithelia; details: Example 2, wounded asthmatic epithelia, 2 h pulses at -26, -2, +22, +46 h
Protocol: (§3) On arrival, the in vitro epithelia were washed with phosphate buffered saline (PBS) and the basal medium was replaced with proprietary defined medium supplied by the manufacturer. Cells were equilibrated at 37° C. and 5% CO2 for 16 h followed by medium replacement with identical proprietary medium lacking glucocorticoids and epidermal growth factor (EGF). This condition was maintained for an additional 22 h. Upon completion (i.e. −26 h on the experimental timeline shown in FIG. 1, intermittent glucocorticoid exposures began: Dexamethasone (DEX) (20 nM) or PBS vehicle (VEH) was added to the apical and basolateral epithelial surfaces for 2 h. At −24 h, the medium was replaced with glucocorticoid- and EGF-free medium. This two-hour DEX/VEH pulse was repeated every 24 h (i.e. at −2, +22, and +46 h) thereafter until cell harvest at +48 h.
An in vitro epithelial injury model that allows for the study of epithelial repair processes in the lung was adapted for use in this study. Briefly, at 0 h on the timeline in FIG. 1, epithelia were scraped in two perpendicular lines with a p1000 pipette tip and placed in bromodeoxyuridine (BrdU)-containing (10 μM) medium. BrdU-containing medium was changed at +24 h following the DEX/VEH pulse mentioned previously. Epithelia were incubated at 37° C. and 5% CO2 until +48 h. In some experiments, wounds were imaged daily (i.e. 0, +24, +48 h) using a 16× phase contrast objective lens and wound area was measured in triplicate by a single operator blinded to the culture conditions using ImageJ Software (Rasband. ImageJ. Bethesda, Md., USA: U. S. National Institutes of Health; 1997-2009). Contrast was enhanced equally in all images to improve wound visualization.
Epithelia were washed once with PBS and harvested at +48 h (FIG. 1) for analysis by flow cytometry. A single cell suspension was achieved by exposure for 5 minutes with trypsin-ethylenediaminetetraacetic acid (EDTA) solution (#T3924; Sigma-Aldrich, St. Louis, Mo.) followed by filtration through a 40 μm strainer. Cells were simultaneously labeled with the following according to the manufacturers' protocols: 1) Carboxyfluorescein FLICA Apoptosis Poly-Caspase Detection Kit (Immunochemistry Technologies, LLC, Bloomington, Minn.) and 2) APC BrdU Flow Kit containing 7-AAD (amino-actinomycin-D) (BD Biosciences, San Jose, Calif.). Flow cytometry data were generated on a FACSCalibur™ System (BD Biosciences). Samples were gated to study 7-AAD content in BrdU^+FLICA^− cells. Data were analyzed by means of the cell cycle analysis feature of FlowJo 7.6 (Tree Star, Inc., Ashland, Oreg.) using a Watson (Pragmatic) model with equal coefficients of variation for the G1/G0 and G2/M peaks
Human fully-differentiated (air-liquid interface) normal (n=3) and asthmatic (n=3) primary airway epithelia, lacking inflammatory cells, were cultured in glucocorticoid-free medium beginning at −48 h. The cells were pulsed with mitotic cell cycle synchrony-inducing (i.e. dexamethasone, simvastatin) compounds or vehicle for 2 h at −26, −2, +22, and +46 h. Cultures were mechanically scrape-wounded at 0 h and thereafter exposed continuously to bromodeoxyuridine (BrdU) to identify mitotically active cells.

[3] = test system: asthmatic primary differentiated human airway epithelia; assay: Mechanical scrape-wound healing (wound area, ImageJ), asthmatic epithelia; details: 20 nM 2 h pulses every 24 h
Protocol: as §3, §2

[4] = test system: normal primary differentiated human airway epithelia; assay: Mechanical scrape-wound healing (wound area, ImageJ), normal epithelia; details: 20 nM 2 h pulses every 24 h
Protocol: as §3, §2

[5] = test system: normal primary differentiated human airway epithelia; assay: Flow cytometric cell cycle analysis (7-AAD) of BrdU+ cells from wounded normal epithelia; details: with pulse DEX, +48 h
Protocol: as §1, §2
Epithelia were washed once with PBS and harvested at +48 h (FIG. 1) for analysis by flow cytometry. […] Data were analyzed by means of the cell cycle analysis feature of FlowJo 7.6 (Tree Star, Inc., Ashland, Oreg.) using a Watson (Pragmatic) model with equal coefficients of variation for the G1/G0 and G2/M peaks

| SMILES | BrdU+ cells, % of total cells [1] | BrdU+ cells in G1/G0 [2] | BrdU+ cells in G2/M [2] | BrdU+ cells in S [2] | wound area decrease from 0 to +48 h [3] | wound area decrease from 0 to +48 h [4] | BrdU+ cells in G1/G0 [5] |
| --- | --- | --- | --- | --- | --- | --- | --- |
| C[C@@H]1C[C@H]2[C@@H]3CCC4=CC(=O)C=C[C@]4(C)[C@@]3(F)[C@@H](O)C[C@]2(C)[C@@]1(O)C(=O)CO [DEX, Dexamethasone] | 0.55±0.13% | 72±5% | 20±4% | 8±2% | 75.7±9% | 86.8±5.4% | > 70% |
| CCC(C)(C)C(=O)O[C@H]1C[C@@H](C)C=C2C=C[C@H](C)[C@H](CC[C@@H]3C[C@@H](O)CC(=O)O3)[C@H]21 [simvastatin] |  | 75±6% | 14±3% | 11±4% |  |  |  |
